Literature values in patent US20230201385A1, “[…] OF BACTERIA AND VIRUSES” (MULTI-MAGNETICS INCORPORATED, priority 2020, published 2023).

Assays:
[1] = dog, i.v.
[2] = tested on: Enterobacterales
[3] = tested on: Enterobacterales infections; conditions: murine models

SMILES | Duration of acceptable bone visualization [1] [days] | Mean standard uptake value (SUV) in bone ([1]; averaged over days 8-16) | Mean standard uptake value (SUV) in kidneys ([1]; averaged over days 8-16) | Mean standard uptake value (SUV) in liver ([1]; averaged over days 8-16) | Mean standard uptake value (SUV) in lungs ([1]; averaged over days 8-16) | Accumulation in cells [2] | Detection of infections by PET [3]
O=P([O-])([O-])O.O=P([O-])([O-])O.[89Zr+4] [^89Zr-phosphate] | 20 | ~10 | ~3 | ~3 | ~3 | – | –
OC[C@@H](O)[C@@H](O)[C@H](O)[C@@H]([18F])CO [^18F-FDS, 2-Deoxy-2[^18F]fluoro-D-sorbitol] | – | – | – | – | – | accumulate in Enterobacterales but not in healthy mammalian or cancer cells | specifically detect Enterobacterales infections
